Molecular target: T1, HPK1 (Homo sapiens, UniProt Q92918)
T1 construct: A HiBiT tag was introduced by CRISPR on the N terminus of HPK1 in Jurkat cells; host or cells: Jurkat cells (ATCC TIB-152), monoclonal line with CRISPR knock-in of HiBiT at the endogenous HPK1 locus
Assay: HPK1 Cellular HiBit Degradation Assay
Assay type: cell-based
Settings: HiBiT HPK1 Jurkat cells, 24 hrs; for DC50: concentration at which 50% of HPK1 was remaining, read-out: DC50 Category; for Dmax: Jurkat, read-out: Dmax Category
Experimental: HPK1 Cellular HiBit Degradation Assay
A HiBiT tag was introduced by CRISPR on the N terminus of HPK1 in Jurkat cells (ATCC® TIB-152) to allow quantitation of HPK1 protein levels in a monoclonal human cell line. Cells were plated at 1×10^6 cells/mL, 30 uL/well (3×10^4 cells/well) in complete RPMI 1640 (10% heat inactivated FBS, 1% L-glutamine) in 384-well assay plates (Corning, cat. no. 3570). HPK1 chimeric targeting molecules (CTMs) were added in an 11 point dilution series (11-point, 3.16-fold) with a final assay concentration range of 10 uM to 0.1 nM. The parental Jurkat cell line, with no HiBiT insertion, was included in the assay as a background control. Cell treated with a DMSO vehicle control was used to determine the maximum signal defining 100% HPK1 in the cell. Cells were incubated for 24 hrs at 37° C./5% CO2. Following incubation, 30 uL of complete Nano-Glo HiBiT Lytic Detection Reagent (Promega cat. no. N3040) was added. Cells were incubated for 10 min at room temperature and luminescence was read on an EnVision plate reader (Perkin Elmer, 0.1 sec per well). Viability was assessed in the same plate using Cell Titer Fluor (Promega) and read on an EnVision plate reader to ensure results were not the effect of cytotoxicity. Percent HPK1 remaining per sample was calculated as follows:
[formula] % HPK1 remaining values were plotted as a function of compound concentration and curves were fit using the Prism (GraphPad) equation “log(inhibitor) vs response−Variable slope (four parameters)”. Dmax values were calculated by identifying the lowest % remaining and subtracting from 100. DC50 values were determined by extrapolating from the curve the concentration at which 50% of HPK1 was remaining based on the DMSO control.
HiBiT HPK1 Jurkat cell lines were used to evaluate the total protein levels of HPK1 in a robust human cellular high throughput format. The level of HPK1 remaining following treatment with HPK1 CTMs is reported as Dmax (maximum degradation) achieved at 24 hours when compared to vehicle treated controls. […] These decreases were not a result of cytotoxicity measured by a viability assessment.

[1] = maximum degradation vs DMSO vehicle control

T1 sequence (Q92918 whole entry): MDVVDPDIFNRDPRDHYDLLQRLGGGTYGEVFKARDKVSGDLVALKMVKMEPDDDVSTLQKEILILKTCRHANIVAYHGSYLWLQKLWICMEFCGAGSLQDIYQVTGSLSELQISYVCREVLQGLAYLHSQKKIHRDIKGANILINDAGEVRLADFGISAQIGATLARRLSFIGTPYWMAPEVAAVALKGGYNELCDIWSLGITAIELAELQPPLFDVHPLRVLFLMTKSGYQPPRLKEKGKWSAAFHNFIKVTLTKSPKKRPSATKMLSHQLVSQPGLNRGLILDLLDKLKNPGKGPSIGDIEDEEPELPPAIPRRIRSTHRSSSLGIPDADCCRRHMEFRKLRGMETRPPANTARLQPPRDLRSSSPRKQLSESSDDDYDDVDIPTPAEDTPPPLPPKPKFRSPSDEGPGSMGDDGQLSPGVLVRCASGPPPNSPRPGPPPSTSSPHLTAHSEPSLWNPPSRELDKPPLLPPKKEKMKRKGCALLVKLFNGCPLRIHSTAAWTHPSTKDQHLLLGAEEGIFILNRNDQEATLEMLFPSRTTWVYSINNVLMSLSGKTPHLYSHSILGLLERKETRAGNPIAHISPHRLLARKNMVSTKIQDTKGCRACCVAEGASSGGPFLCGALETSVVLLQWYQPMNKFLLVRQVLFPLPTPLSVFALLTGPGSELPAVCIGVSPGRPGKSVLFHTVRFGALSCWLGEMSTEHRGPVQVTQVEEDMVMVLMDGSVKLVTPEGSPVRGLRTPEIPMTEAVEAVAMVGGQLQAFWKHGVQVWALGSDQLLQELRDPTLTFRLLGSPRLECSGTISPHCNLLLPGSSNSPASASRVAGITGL

SMILES	DC50 [nM]	Dmax [1] [%]	Dmax Category [1]
CC(C)n1cnc2cc(-c3ccc4c(c3)N([C@H]3C[C@@H](N5CCCCC5)C3)C(=O)C43CCN(C(=O)[C@@H]4CCN(C(=O)[C@H]5CC[C@H](Nc6cccc7c6C(=O)N(C6CCC(=O)NC6=O)C7=O)CC5)C4)CC3)nc(Nc3ccncc3F)c21 (mixture of isomers) [Example 11, 2-[(3RS)-2,6-dioxopiperidin-3-yl]-4-{[(1R,4R)-4-[(3R)-3-[(6-{4-[(3-fluoropyridin-4-yl)amino]-3-(propan-2-yl)-3H-imidazo[4,5-c]pyridin-6-yl}-2-oxo-1-[(1S,3S)-3-(piperidin-1-yl)cyclobutyl]-1,2-dihydrospiro[indole-3,4′-piperidin]-1′-yl)carbonyl]pyrrolidine-1-carbonyl]cyclohexyl]amino}-2,3-dihydro-1H-isoindole-1,3-dione]	100 to 500	50 to 70	
CC(C)n1cnc2cc(-c3ccc4c(c3)N([C@H]3C[C@@H](N5CCCCC5)C3)C(=O)C43CCN(C(=O)[C@@H]4CCN(C(=O)[C@H]5CC[C@H](Nc6cncc(C7CCC(=O)NC7=O)c6)CC5)C4)CC3)nc(Nc3ccccc3F)c21 (mixture of isomers) [Example 12, (3RS)-3-(5-{[(1R,4R)-4-[(3R)-3-[(6-{4-[(2-fluorophenyl)amino]-3-(propan-2-yl)-3H-imidazo[4,5-c]pyridin-6-yl}-2-oxo-1-[(1S,3S)-3-(piperidin-1-yl)cyclobutyl]-1,2-dihydrospiro[indole-3,4′-piperidin]-1′-yl)carbonyl]pyrrolidine-1-carbonyl]cyclohexyl]amino}pyridin-3-yl)piperidine-2,6-dione]	500 to 1000	70 to 85	
CC(C)n1cnc2cc(-c3ccc4c(c3)N([C@H]3C[C@@H](N5CCCCC5)C3)C(=O)C43CCN(C(=O)[C@@H]4CCN(C(=O)[C@H]5CC[C@H](Oc6ccc(C7CCC(=O)NC7=O)cn6)CC5)C4)CC3)nc(NC3CC3)c21 (mixture of isomers) [Example 16, (3RS)-3-(6-{[(1R,4R)-4-[(3R)-3-({6-[4-(cyclopropylamino)-3-(propan-2-yl)-3H-imidazo[4,5-c]pyridin-6-yl]-2-oxo-1-[(1S,3S)-3-(piperidin-1-yl)cyclobutyl]-1,2-dihydrospiro[indole-3,4′-piperidin]-1′-yl}carbonyl)pyrrolidine-1-carbonyl]cyclohexyl]oxy}pyridin-3-yl)piperidine-2,6-dione]	500 to 1000	70 to 85	
CC(C)n1cnc2cc(-c3ccc4c(c3)N([C@H]3C[C@@H](N5CCCCC5)C3)C(=O)C43CCN(C(=O)[C@@H]4CCN(C(=O)[C@H]5CC[C@H](Oc6ccc(C7CCC(=O)NC7=O)cn6)CC5)C4)CC3)nc(Nc3ccccc3F)c21 (mixture of isomers) [Example 17, (3RS)-3-(6-{1[(1R,4R)-4-[(3R)-3-[(6-{4-[(2-fluorophenyl)amino]-3-(propan-2-yl)-3H-imidazo[4,5-c]pyridin-6-yl}-2-oxo-1-[(1S,3S)-3-(piperidin-1-yl)cyclobutyl]-1,2-dihydrospiro[indole-3,4′-piperidin]-1′-yl)carbonyl]pyrrolidine-1-carbonyl]cyclohexyl]oxy}pyridin-3-yl)piperidine-2,6-dione]	< 100	> 85	
CC(C)n1cnc2cc(-c3ccc4c(c3)N([C@H]3C[C@@H](N5CCCCC5)C3)C(=O)C43CCN(C(=O)[C@@H]4CCN(C(=O)[C@H]5CC[C@H](Oc6ccc(C7CCC(=O)NC7=O)cn6)CC5)C4)CC3)nc(Nc3ccncc3F)c21 (mixture of isomers) [Example 18, (3RS)-3-(6-{[(1R,4R)-4-[(3R)-3-[(6-{4-[(3-fluoropyridin-4-yl)amino]-3-(propan-2-yl)-3H-imidazo[4,5-c]pyridin-6-yl}-2-oxo-1-[(1S,3S)-3-(piperidin-1-yl)cyclobutyl]-1,2-dihydrospiro[indole-3,4′-piperidin]-1′-yl)carbonyl]pyrrolidine-1-carbonyl]cyclohexyl]oxy}pyridin-3-yl)piperidine-2,6-dione]	100 to 500	70 to 85	
CC(C)n1cnc2cc(-c3ccc4c(c3)N([C@H]3C[C@@H](N5CCCCC5)C3)C(=O)C43CCN(C(=O)[C@@H]4CCN(C(=O)[C@H]5CC[C@H](Oc6ccc(C7CCC(=O)NC7=O)cn6)CC5)C4)CC3)nc(NC3CCOCC3)c21 (mixture of isomers) [Example 19, (3RS)-3-(6-{[(1R,4R)-4-[(3R)-3-[(6-{4-[(oxan-4-yl)amino]-3-(propan-2-yl)-3H-imidazo[4,5-c]pyridin-6-yl}-2-oxo-1-[(1S,3S)-3-(piperidin-1-yl)cyclobutyl]-1,2-dihydrospiro[indole-3,4′-piperidin]-1′-yl)carbonyl]pyrrolidine-1-carbonyl]cyclohexyl]oxy}pyridin-3-yl)piperidine-2,6-dione]	< 100	70 to 85	
CC(C)n1cnc2cc(-c3ccc4c(c3)N([C@H]3C[C@@H](N5CCCCC5)C3)C(=O)C43CCN(C(=O)[C@@H]4CCN(C(=O)C5CCN(c6ccc(C7CCC(=O)NC7=O)cn6)CC5)C4)CC3)nc(NC3CC3)c21 (mixture of isomers) [Example 23, (3RS)-3-(6-{4-[(3R)-3-({6-[4-(cyclopropylamino)-3-(propan-2-yl)-3H-imidazo[4,5-c]pyridin-6-yl]-2-oxo-1-[(1S,3S)-3-(piperidin-1-yl)cyclobutyl]-1,2-dihydrospiro[indole-3,4′-piperidin]-1′-yl}carbonyl)pyrrolidine-1-carbonyl]piperidin-1-yl}pyridin-3-yl)piperidine-2,6-dione]	< 100	70 to 85	
CC(C)n1cnc2cc(-c3ccc4c(c3)N(C3CC(N5CCCCC5)C3)C(=O)C43CCN(C(=O)[C@@H]4CCN(C(=O)C5CCN(c6ccc(C7CCC(=O)NC7=O)cn6)CC5)C4)CC3)nc(Nc3ccncc3F)c21 (mixture of isomers) [Example 25, (3RS)-3-(6-{4-[(3R)-3-[(6-{4-[(3-fluoropyridin-4-yl)amino]-3-(propan-2-yl)-3H-imidazo[4,5-c]pyridin-6-yl}-2-oxo-1-[(1S,3S)-3-(piperidin-1-yl)cyclobutyl]-1,2-dihydrospiro[indole-3,4′-piperidin]-1′-yl)carbonyl]pyrrolidine-1-carbonyl]piperidin-1-yl}pyridin-3-yl)piperidine-2,6-dione]	< 100		B (B: >70%-<85%)
CC(C)n1cnc2cc(-c3ccc4c(c3)N([C@H]3C[C@@H](N5CCCCC5)C3)C(=O)C43CCN(C(=O)[C@H]4CC[C@H](C(=O)N5CCC(Nc6ccc(C7CCC(=O)NC7=O)cn6)CC5)CC4)CC3)nc(Nc3ccncc3F)c21 (mixture of isomers) [Example 27]	< 100	50 to 70	
CC(C)n1cnc2cc(-c3ccc4c(c3)N([C@H]3C[C@@H](N5CCCCC5)C3)C(=O)C43CCN(C(=O)[C@H]4CC[C@H](C(=O)N5CCC(Oc6ccc(C7CCC(=O)NC7=O)cn6)CC5)CC4)CC3)nc(Nc3ccccc3F)c21 (mixture of isomers) [Example 28, (3RS)-3-[6-({1-[(1R,4R)-4-[(6-{4-[(2-fluorophenyl)amino]-3-(propan-2-yl)-3H-imidazo[4,5-c]pyridin-6-yl}-2-oxo-1-[(1S,3S)-3-(piperidin-1-yl)cyclobutyl]-1,2-dihydrospiro[indole-3,4′-piperidin]-1′-yl)carbonyl]cyclohexanecarbonyl]piperidin-4-yl}oxy)pyridin-3-yl]piperidine-2,6-dione]	< 100	70 to 85	
CC(C)n1cnc2cc(-c3ccc4c(c3)N([C@H]3C[C@@H](N5CCCCC5)C3)C(=O)C43CCN(C(=O)[C@H]4CC[C@@H](C(=O)N5CCC(Nc6ccc(C7CCC(=O)NC7=O)cn6)CC5)CC4)CC3)nc(NC3CC3)c21 (mixture of isomers) [Example 29, (3RS)-3-[6-({1-[(1S,4S)-4-({6-[4-(cyclopropylamino)-3-(propan-2-yl)-3H-imidazo[4,5-c]pyridin-6-yl]-2-oxo-1-[(1S,3S)-3-(piperidin-1-yl)cyclobutyl]-1,2-dihydrospiro[indole-3,4′-piperidin]-1′-yl}carbonyl)cyclohexanecarbonyl]piperidin-4-yl}amino)pyridin-3-yl]piperidine-2,6-dione]	< 100	50 to 70	
CC(C)n1cnc2cc(-c3ccc4c(c3)N([C@H]3C[C@@H](N5CCCCC5)C3)C(=O)C43CCN(C(=O)[C@H]4CC[C@@H](C(=O)N5CCC(Nc6ccc(C7CCC(=O)NC7=O)cn6)CC5)CC4)CC3)nc(Nc3ccccc3F)c21 (mixture of isomers) [Example 30, (3RS)-3-[6-({1-[(1S,4S)-4-[(6-{4-[(2-fluorophenyl)amino]-3-(propan-2-yl)-3H-imidazo[4,5-c]pyridin-6-yl}-2-oxo-1-[(1S,3S)-3-(piperidin-1-yl)cyclobutyl]-1,2-dihydrospiro[indole-3,4′-piperidin]-1′-yl)carbonyl]cyclohexanecarbonyl]piperidin-4-yl}amino)pyridin-3-yl]piperidine-2,6-dione]	< 100	70 to 85	
